Data on eight compounds can be found in patent publication US5214156A, “Therapeutically useful tetralin derivatives” (The Upjohn Company, priority 1992, dated 1993).

In one data set the test system is dopamine receptors. The conditions noted are these: background; cited from earlier work.
Data set [1] is described as follows: Bioavailability from ED50 values after s.c. and p.o. administration. Format: in vivo, rat. The note with it: comparing ED50 values, reserpine-pretreated rats. The text has this:
^f "Bioch" denotes the bioavailability as estimated by comparing the
ED50 values after s.c. and p.o. administration (reserpinepretreated rats)

For data set [2], the system named is Reserpine Pretreated Rats. Briefly: Gross behavior (antagonism of reserpine-induced neuroleptic syndrome). It counts as in vivo, rat. From the text:
Antagonism of the reserpine-induced "neuroleptic syndrome" in the rat (gross behavior)
Depletion of the monoamine stores with reserpine brings about a "neuroleptic syndrome" characterized by hypomotility, catalepsy, muscle rigidity, hunch-backed posture as well as a number of other central and peripheral signs of monoamine depletion. The whole or parts of this syndrome can be reversed by the administration of drugs that stimulate dopamine or 5-HT receptors directly or indirectly.
Stimulation of the dopamine receptors, with apomorphine for example, gives rise to both locomotion and stereotyped behavior such as sniffing, gnawing and jumping. On the other hand, stimulation of the 5-HT receptors, with 5-hydroxytryptophane (5-HTP) combined with MAO-inhibitors for example, gives rise to a very different behavior.
(§1) Rats (150-300 g) pretreated with reserpine (5 mg/kg, 18 hours before) were given the test compounds. Gross behavioral observations (changes in motility, hindleg abduction, etc.) were made. Subsequent administration of NSD 1015, decapitation, brain dissection (corpora striata, the limbic forebrain and the remaining hemispheral portions (mainly cortex) or rat brain), homogenization, centrifugation, ion-exchange chromatography and spectrofluorimetric measurements (all as described in detail by Wikstrom, et al., J. Med. Chem., 21, 864-867, 1978 and reference cited therein), or by HPLC/EC, gave the actual dopamine and 5-HTP levels. Several doses (n-4-6) were tested for each compound and brain area. The dose of a compound giving 50% of the maximal reduction of the %-HTP level in the rat brain part was then estimated.
^d The gross behavior of the animals was observed during the course o
the experiments. The 5HT behavioral syndrome consisted of flat body
psoture, abducted hind and forelegs, forepaw treading (pianoplaying) and […]

The target in a further data set is T1, 5-HT1A receptor (Homo sapiens, UniProt P08908).
T1 sequence (P08908 1-422): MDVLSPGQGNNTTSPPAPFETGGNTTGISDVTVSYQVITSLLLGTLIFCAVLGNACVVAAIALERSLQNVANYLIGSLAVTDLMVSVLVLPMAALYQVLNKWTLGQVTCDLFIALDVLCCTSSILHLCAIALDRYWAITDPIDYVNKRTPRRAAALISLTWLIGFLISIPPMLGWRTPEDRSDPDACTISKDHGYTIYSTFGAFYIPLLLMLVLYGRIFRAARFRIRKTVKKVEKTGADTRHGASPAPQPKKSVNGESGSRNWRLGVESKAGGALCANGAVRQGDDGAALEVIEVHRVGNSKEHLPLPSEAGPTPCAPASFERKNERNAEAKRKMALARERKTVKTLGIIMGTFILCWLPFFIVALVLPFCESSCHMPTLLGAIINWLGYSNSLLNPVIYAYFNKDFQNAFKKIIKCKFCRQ
Kind of data set: In vitro binding, 5-HT1A. The text has this:
The compounds of this invention where --OR1 is in the 8 position in the aromatic ring are very selective 5-HT1A receptor agonists having little or no dopaminergic activity. […] These compounds are particularly effective anxiolytic and antidepressant agents. Other uses for these compounds include panic attacks, obsessive-compulsive disturbances, and senile dementia particularly the emotional disturbances seen in dementia disorders. In addition, central 5-HT receptor activation are believed to be involved in mediating sexual behavior. These compounds would be useful to stimulate sexual activity and to alleviate impotence.

A further data set relates to 5-HT receptor. Briefly: In-vivo tryptophan hydroxylation (5-HTP formation) in limbic forebrain of reserpine-pretreated rats after NSD 1015. The note with it: limbic brain part. Details: species or system rat. How it is done: In-vivo determination of rat brain tyrosine and tryptophan hydroxylation after reserpine pretreatment (biochemically monitored dopamine and 5-HT receptor activity)
The compounds under evaluation were tested biochemically for central dopamine and 5-HT receptor (pre- and/or postsynaptic) stimulating activity. The concept of this biochemical screening method is that a dopamine or 5-HT-receptor agonist will stimulate the receptor and through regulatory feedback systems effect a decline in tyrosine or tryptophan hydroxylating activity, respectively, and a subsequent reduction in the synthesis rate for dopamine and 5-HT in the presynaptic neuron. Dopamine and 5-HTP formation, as determined after in-vivo inhibition of the aromatic L-amino acid decarboxylase with NSD 1015 (3-hydroxybenzylhydrazine hydrochloride) are taken as indirect measures of dopamine and 5-HT-synthesis rates, respectively.
as §1
^b Dose giving a half maximal decrease of 5HTP formation in the rat
limbic brain part. The values were estimated from doseresponse curves
comprising 4 to 6 levels (n = 4).
Control level was: 191 ng/g.

A short description of data set [3]: Bioavailability from plasma drug levels (GC/MS) after s.c. and p.o. administration. It counts as in vivo, rat. The note with it: plasma drug levels by GC/MS after s.c. and p.o.; nonpretreated rats. From the text:
FIGS. 1 and 2). "Plasma" denotes the availability as estimated by
comparing plasma drug levels (measured by means of GC/MS) after s.c. and
p.o. administration of test drugs in nonpretreated rats.

The nature of data set [4]: Bioavailability from decrease in rectal temperature after s.c. and p.o. administration. It counts as in vivo, rat. The conditions noted are these: rectal temperature decrease after s.c. (25.0 μmol/kg) and p.o. (100.0 μmol/kg); nonpretreated rats. The text has this:
"Temp" denotes the bioavailabilty as estimated by comparing the decrease
in rectal temperature after s.c. (25.0 μmol/kg) and p.o. (100.0
μmol/kg) administration of the test drugs in nonpretreated rats (c.f.,
FIGS. 1 and 2). "Plasma" denotes the availability as estimated by […]

The next data set deals with dopamine D2 receptor (Homo sapiens, UniProt P14416). Briefly: In vitro binding, dopamine D2. How it is done:
^e The affinity of the test compounds for dopamine D2 receptor sites
was determined by calculating the IC50 value (see text).

For data set [5], the system named is spontaneously hypertensive rats. Kind of data set: Blood pressure lowering in spontaneously hypertensive rats. It counts as in vivo, rat. From the text: Pharmacol. 37, 263-265 (1984). Without further elaboration,it is believed that one skilled in the art can, using the preceding description, practice the present invention to its fullest extent.

The pIC50 is the negative decadic logarithm of the IC50, by convention in mol/L.

pIC50: −log10 of the molar value. Like-named read-outs stand apart in the source and are kept apart here.

Sequence of dopamine D2 receptor (P14416 whole entry, species assumed): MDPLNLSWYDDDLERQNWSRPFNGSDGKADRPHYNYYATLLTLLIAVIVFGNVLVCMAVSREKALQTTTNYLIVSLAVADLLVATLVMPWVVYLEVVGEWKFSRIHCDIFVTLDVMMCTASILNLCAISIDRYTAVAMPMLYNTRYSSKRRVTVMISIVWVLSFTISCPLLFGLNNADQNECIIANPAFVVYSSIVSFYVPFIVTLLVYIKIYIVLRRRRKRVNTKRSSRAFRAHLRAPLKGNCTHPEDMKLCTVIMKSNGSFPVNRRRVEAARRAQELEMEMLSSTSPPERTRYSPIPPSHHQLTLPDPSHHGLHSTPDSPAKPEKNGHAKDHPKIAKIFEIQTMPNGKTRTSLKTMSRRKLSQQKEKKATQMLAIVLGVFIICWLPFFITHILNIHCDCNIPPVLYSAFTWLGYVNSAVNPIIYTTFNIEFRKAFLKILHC

On to `O=C1CC2(CCCC2)CC(=O)N1CCCCN1CCN(c2ncccn2)CC1` [Buspirone], for which the “dopamine receptor antagonism / agonism” value in the data set with dopamine receptors was “antagonizes dopamine receptors at the same dose it stimulates 5-HT1A receptors”.
Turning to `CCCN(CC1CC1)C1CCc2cccc(OC)c2C1` (stereo not shown) [Example 8-OMe-CPMAT, 8Methoxy-2-(N-cyclopropylmethyl-N-n-propylamino)tetralin], the Bioavailability bioch po/sc in [1] was 12%. The Behavior in data set [2] (po) and in data set [2] (sc) was 5-HT syndr throughout. At 5-HT1A receptor (in vitro binding, read-out: In vitro binding 5-HT1A IC50), the pIC50 is 8.22. Moreover, the “ED50 5-HTP limb” value with 5-HT receptor (po) was determined as 3.3 µmol/kg; with 5-HT receptor (sc), 0.40 µmol/kg.
Turning to `COc1cccc2c1CC(N(CC1CC1)CC1CC1)CC2` (stereo not shown) [Example 8-OMe-DCPMAT, 8Methoxy-2-(N,N-dicyclopropylmethylamino)tetralin], in [1], the Bioavailability bioch po/sc is on record as 60%. For the same compound, the Behavior in data set [2] (po) and in data set [2] (sc) was 5-HT syndr throughout. In data set [3], the Bioavailability plasma po/sc is 6-16%. Also, the pIC50 is 7.68 on 5-HT1A receptor and 4.40 at dopamine D2 receptor. In addition, the “IC50 ratio of dopamine D2 to 5HT1A in vitro binding (selectivity)” value on 5-HT1A receptor (in vitro binding, Table 1 data) was “demonstrates the selectivity for the 5-HT1A receptor”. Moreover, the “ED50 5-HTP limb” value was determined as 2.0 µmol/kg with 5-HT receptor (po) and 1.2 µmol/kg with 5-HT receptor (sc). Also, in data set [4], the Bioavailability temp po/sc is 36%.
Turning to `COc1cccc2c1C[C@H](N(CC1CC1)CC1CC1)CC2` [Example 12, (+)-R-8-Methoxy-2-(di-cyclopropyl-methylamino)tetralin], the “blood pressure lowering effects” value in [5] is reported as “demonstrate blood pressure lowering effects”.
On to `COc1cccc2c1CC(N(CCc1cccs1)CC1CC1)CC2` (stereo not shown) [Example 17, 8-Methoxy-2-(N-cyclopropylmethyl-N-(2-thiophenethyl)-amino)tetralin], for which, in [5], the “blood pressure lowering effects” value is “demonstrate blood pressure lowering effects”.
As to `CC1(C)CC(=O)N(CCCCN2CCN(c3ncccn3)CC2)C(=O)C1` [Gepirone], in the data set on dopamine receptors, the “dopamine receptor antagonism / agonism” value is “has dopamine antagonist properties”.
Regarding `CN1CCc2cccc3c2[C@H]1Cc1ccc(O)c(O)c1-3` [apomorphine], the “dopamine receptor antagonism / agonism” value in the data set on dopamine receptors is on record as “able to activate the dopamine autoreceptors as well as the post synaptic dopamine receptors”.
Regarding “(-)-R-8-Methoxy-2-(di-cyclopropylmethylamino)tetralin [Example 13]”, the “blood pressure lowering effects” value in data set [5] is “demonstrate blood pressure lowering effects”.
